In patent publication US9708338B2, “Aromatic heterocyclylamine derivative having TRPV4-inhibiting activity” (Shionogi & Co., Ltd., priority 2013, dated 2017):

Test system: not listed separately
Experiment: Test Example 7 Metabolism stability test
Type: in vitro ADME
Conditions: 0.5 μmol/L of test compound, human liver microsomes 0.5 mg protein/mL, 37° C.
Description: Using commercially available pooled human hepatic microsomes, a compound of the present invention was reacted for a constant time, and a remaining rate was calculated by comparing a reacted sample and an unreacted sample, thereby, a degree of metabolism in liver was assessed.
A reaction was performed (oxidative reaction) at 37° C. for 0 minute or 30 minutes in the presence of 1 mmol/L NADPH in 0.2 mL of a buffer (50 mmol/L Tris-HCl pH 7.4, 150 mmol/L potassium chloride, 10 mmol/L magnesium chloride) containing 0.5 mg protein/mL of human liver microsomes. After the reaction, 50 μL of the reaction solution was added to 100 μL of a methanol/acetonitrile=1/1 (v/v), mixed and centrifuged at 3000 rpm for 15 minutes. The compound of the present invention in the supernatant was quantified by LC/MS/MS, and a remaining amount of the compound of the present invention after the reaction was calculated, letting a compound amount at 0 minute reaction time to be 100%. Hydrolysis reaction was performed in the absence of NADPH and glucuronidation reaction was in the presence of 5 mmol/L UDP-glucuronic acid in place of NADPH, followed by similar operations. (Result) % inhibition was shown at 0.5 μmol/L of test compound.

| Percent of compound remaining after 30 min incubation [%] | SMILES |
| --- | --- |
| 106 | CC(O)c1nc(C(O)CO)c(-c2csc(Nc3ccc(CNc4ccc(Cl)cc4F)cn3)n2)s1 (centres unmarked) [Compound I-69] |

Target: T1, human TRPV4 (Homo sapiens, UniProt Q9HBA0)
T1 construct: expressed in transfected cells; host or cells: CHO-K1
Experiment: Test Example 1 Measurement of TRPV4 inhibitory activity (IC50 value)
Type: cell-based
Conditions: CHO-K1 cells stably expressing human TRPV4; Fluo 4-AM, FLIPR TETRA; final 1 μmol/L 4α-PDD
Description: (§1) For each compound, TRPV4 inhibitory activity was measured using cells. (Method) TRPV4 inhibitory activity of the compound was evaluated in accordance with the following procedure.
(§2) (1) The TRPV4 inhibitory activity was measured using CHO-K1 cells stably expressing human TRPV4.
(2) In the day before the experimental day, frozen cell were thawed and washed with the culture medium (MEM-α, 10% FBS, 2 mmol/L GlutaMax, 50 unit Penicillin, 50 μg/mL Streptomycin, 20 mmol/L HEPES). Then cells were suspended in the culture medium.
(3) The 384-well plates which hTRPV4/CHO cells were seeded at densities of 4000 cells/well in the culture medium and cultured in a CO2 incubator in the presence of 5% CO2 at 37° C. for overnight was used as assay plates.
(4) The assay plate was washed with assay buffer (Hanks, 20 mmol/L HEPES, 2.5 mmol/L probenecid, pH 7.4), and the buffer were remained at 20 μL/well.
(5) 10 μl of dye loading buffer (9 μmol/L Fluo 4-AM, 0.09% Pluronic F-127/assay buffer) was added to each well, then the assay plate was incubated in a CO2 incubator in the presence of 5% CO2 at 37° C. for one hour (final 3 μmol/L Fluo4-AM).
(6) The assay plate was washed with the assay buffer, and the buffers were remained at 20 μL/well. Then the assay plate was incubated for 10 min at room temperature.
(7) 20 μL/well of diluted compound solution was dispensed to each well in the compound plate, and mixed with built-in Pipette and Mixer of the Fluorescence analysis system FLIPR TETRA (Molecular devices).
(8) After incubation for 5 min, 20 μL/well of 4α-PDD solution were applied to each well of assay plate and mixed with the FLIPR TETRA (final 1 μmol/L 4α-PDD).
(9) The fluorescent intensity was measured with FLIPR TETRA system for 5 min from the point of time addition the compound solution, at Ex 470-495 nm, Em 515-575 nm wavelength.
(§3) In addition, TRPV4 inhibitory activity (IC50 value) of a compound was evaluated according to the following procedure.
(§4) (10) In the presence of the compound, the difference between maximal and minimal of fluorescent intensity value for 5 min from just before addition of 4α-PDD solution was calculated, and it was referred as Max−Min value. Max−Min value of the compound A at 1 μmol/L was defined as 100% inhibitory activity, Max−Min value in the absence of the compound was defined as 0% inhibitory activity. The TRPV4 inhibitory activity of the compound was calculated by the following formula. Inhibition ratio=(1−(Max−Min value of the compound−100% inhibitory activity)/(0% inhibitory activity−100% inhibitory activity))×100
Herein, the compound A is the compound I-186 described in PCT/JP2013/058722.
(11) Inhibitory activity was calculated at 10 points with three fold serial dilution, in the final concentration of the compound from 10 μmol/L to 0.5 nmol/L, the IC50 value (nmol/L) was calculated by logistic approximation method.

T1 sequence (Q9HBA0 whole entry): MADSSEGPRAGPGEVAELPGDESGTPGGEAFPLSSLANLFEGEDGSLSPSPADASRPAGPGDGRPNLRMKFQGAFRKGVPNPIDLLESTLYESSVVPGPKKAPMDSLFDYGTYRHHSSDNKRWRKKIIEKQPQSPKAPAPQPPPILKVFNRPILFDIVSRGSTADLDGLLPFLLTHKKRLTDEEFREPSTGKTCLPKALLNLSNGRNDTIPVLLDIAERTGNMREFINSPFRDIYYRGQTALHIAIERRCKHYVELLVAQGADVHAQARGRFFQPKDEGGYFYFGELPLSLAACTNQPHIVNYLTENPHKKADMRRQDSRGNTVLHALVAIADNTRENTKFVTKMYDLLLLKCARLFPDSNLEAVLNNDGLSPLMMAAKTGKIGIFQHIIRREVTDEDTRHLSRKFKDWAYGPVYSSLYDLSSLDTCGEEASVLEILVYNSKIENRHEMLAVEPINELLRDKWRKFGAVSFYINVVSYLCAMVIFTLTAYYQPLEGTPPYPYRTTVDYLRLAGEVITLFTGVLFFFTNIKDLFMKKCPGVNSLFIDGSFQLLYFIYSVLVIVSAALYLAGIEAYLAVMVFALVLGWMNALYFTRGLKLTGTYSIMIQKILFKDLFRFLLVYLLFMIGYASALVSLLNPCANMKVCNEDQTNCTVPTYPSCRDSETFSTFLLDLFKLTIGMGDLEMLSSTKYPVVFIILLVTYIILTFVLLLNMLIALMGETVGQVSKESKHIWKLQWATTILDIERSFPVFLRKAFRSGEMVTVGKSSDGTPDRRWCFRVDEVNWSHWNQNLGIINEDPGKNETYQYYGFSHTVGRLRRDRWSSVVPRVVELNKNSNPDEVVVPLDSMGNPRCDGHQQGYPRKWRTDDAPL

| IC50 [nM] | SMILES |
| --- | --- |
| 52 | Cc1nc(C(C)O)sc1-c1csc(Nc2ccc(CCOc3ccc(Cl)cc3F)cn2)n1 (centres unmarked) [Compound I-6] |
| 14 | Cc1nc([C@H](C)O)sc1-c1csc(Nc2ccc3c(n2)CCCC3Nc2ccc(Cl)cc2F)n1 (some centres unmarked) [Compound I-10] |
| 6.4 | Cc1nc(C)c(-c2csc(Nc3ccc(C(=O)Cc4ccc(Cl)cc4)cn3)n2)s1 [Compound I-13] |
| 37 | Cc1nc(C)c(-c2csc(Nc3ccc(S(=O)(=O)Cc4ccc(Cl)cc4)cn3)n2)s1 [Compound I-17] |
| 42 | Cc1nc(C)c(-c2c[nH]c(Nc3ccc(CNc4ccc(Cl)cc4F)cn3)n2)s1 [Compound I-41] |
| 39 | Cc1nc(C)c(-c2csc(Nc3ccc(CNc4ccc(Cl)cc4F)cn3)n2)o1 [Compound I-43] |
| 8.1 | Cc1nc([C@H](C)O)sc1-c1csc(Nc2ccc(COC(C(F)(F)F)C(F)(F)F)cn2)n1 [Compound I-45] |
| 8.6 | CC(=O)N(Cc1ccc(Nc2nc(-c3sc(C)nc3C)cs2)nc1)c1ccc(Cl)cc1F [Compound I-49] |
| 27 | Cc1nc(C)c(-c2csc(Nc3ccc(/C=C/c4ccc(Cl)cc4)cn3)n2)s1 [Compound I-54] |
| 27 | CC(O)c1nc(CCO)c(-c2csc(Nc3ccc(CNc4ccc(Cl)cc4F)cn3)n2)s1 (centres unmarked) [Compound I-79] |
| 14 | CC(O)c1nc(CC#N)c(-c2csc(Nc3ccc(CNc4ccc(Cl)cc4F)cn3)n2)s1 (centres unmarked) [Compound I-132] |
| 6.8 | Cc1nc(C(C)O)sc1-c1csc(Nc2ccc(C(=O)Nc3ccc(C#N)cc3F)cn2)n1 (centres unmarked) [Compound I-134] |
| 42 | Cc1nc(C(C)O)sc1-c1csc(Nc2ccc(OC(F)(F)F)cn2)n1 (centres unmarked) [Compound I-140] |
| 30 | Cc1nc(C(C)O)sc1-c1csc(Nc2ccc(CCNc3ccc(Cl)cc3F)cn2)n1 (centres unmarked) [Compound I-150] |
| 4 | COCCN(Cc1ccc(Nc2nc(-c3sc(C)nc3C)cs2)nc1)c1ccc(Cl)cc1F [Compound I-184] |
| 6.4 | Cc1nc(C)c(-c2csc(Nc3ccc(C(C)Nc4ccc(Cl)cc4)cn3)n2)s1 (centres unmarked) [Compound I-188] |
| 2.5 | Cc1nc(C)c(-c2csc(Nc3ccc(CN(CC(C)C)c4ccc(Cl)cc4F)cn3)n2)s1 [Compound I-200] |
| 1.7 | Cc1nc(C)c(-c2csc(Nc3ccc(CNC4(C(F)(F)F)CCCC4)cn3)n2)s1 [Compound I-228] |
| 14 | Cc1nc(C)c(-c2csc(Nc3ccc(C(=O)Nc4cccnc4)cn3)n2)s1 [Compound I-257] |
| 26 | Cc1nc(C)c(-c2csc(Nc3ccc(C(=O)Nc4ccc(Oc5ccccc5)cc4)cn3)n2)s1 [Compound I-270] |
| 3.3 | Cc1nc(C)c(-c2csc(Nc3ccc(C(=O)NC(C)(C)C(F)(F)F)cn3)n2)s1 [Compound I-274] |
| 24 | Cc1nc(C)c(-c2csc(Nc3ccc(OCc4ccc(Cl)cc4)cn3)n2)s1 [Compound I-312] |

| SMILES | IC50 [nM] |
| --- | --- |
| CO[C@H]1C[C@H]2CC[C@@H](C1)N2C(=O)c1ccc(Nc2nc(-c3sc(C(N)=O)nc3C)cs2)nc1 [Compound I-118] | 9.1 |

Target: T1, human TRPV4
Experiment: Test Example 2 Measurement of TRPV4 inhibitory activity (IC50 value)
Type: cell-based
Conditions: CHO-K1 cells stably expressing human TRPV4; DMEM 10% FBS, 5000 cells/well; final 0.15 μmol/L 4α-PDD
Description: as §1, §2
(2) In the day before the experimental day, frozen cell were thawed and washed with the culture medium (DMEM, 10% FBS, 2 mmol/L GlutaMax, 50 unit Penicillin, 50 μg/mL Streptomycin, 0.1 mmol/L Non-Essential Amino Acids, 25 mmol/L HEPES). Then cells were suspended in the culture medium. (3) The 384-well plates which hTRPV4/CHO cells were seeded at densities of 5000 cells/well in the culture medium and cultured in a CO2 incubator in the presence of 5% CO2 at 37° C. for overnight was used as assay plates. (4) The assay plate was washed with assay buffer (Hanks, 20 mmol/L HEPES, 2.5 mmol/L probenecid, pH7.4), and the buffer were remained at 20 μL/well. (5) 10 μl of dye loading buffer (3 μmol/L Fluo 4-AM, 0.03% Pluronic F-127/assay buffer) was added to each well, then the assay plate was incubated in a CO2 incubator in the presence of 5% CO2 at 37° C. for one hour (final 1 μmol/L Fluo4-AM). (6) The assay plate was washed with the assay buffer, and the buffers were remained at 20 μL/well. Then the assay plate was incubated for 10 min at room temperature. (7) 20 μL/well of diluted compound solution was dispensed to each well in the compound plate, and mixed with built-in Pipette and Mixer of the Fluorescence analysis system FLIPR TETRA (Molecular devices). (8) After incubation for 5 min, 20 μL/well of 4α-PDD solution were applied to each well of assay plate and mixed with the FLIPR TETRA (final 0.15 μmol/L 4α-PDD). (9) The fluorescent intensity was measured with FLIPR TETRA system for 5 min from the point of time addition the […], at Ex 470-495 nm, Em 515-575 nm wavelength.
as §3
as §4, with “of the above compound A” for “of the compound A”, “inhibitory activity))×100 (11) Inhibitory activity was calculated at 10 points with three fold serial dilution, in the final concentration of the compound from 10 μmol/L to 0.5 nmol/L, the IC50 value (nmol/L) was calculated by logistic approximation method. (Result)” for “inhibitory activity))×100”

| SMILES | IC50 [nM] |
| --- | --- |
| CCN(CC)C(=O)N1C[C@H]2CC[C@@H](C1)N2C(=O)c1ccc(Nc2nc(-c3sc(C)nc3C)cs2)nc1 [Compound I-592] | 3.9 |
| Cc1nc(C)c(-c2csc(Nc3ccc(C(=O)N4[C@@H]5CC[C@H]4COC5)cn3)n2)s1 [Compound I-662] | 6.7 |
| Cc1nc(C)c(-c2csc(Nc3ccc(C(=O)N4C[C@H]5CC[C@@H](C4)O5)cn3)n2)s1 [Compound I-703] | 13 |
| CO[C@H]1C[C@H]2CC[C@@H](C1)N2C(=O)c1ccc(Nc2nc(-c3sc(C)nc3C)cs2)nc1 [Compound I-719] | 1.6 |
| Cc1nc(C)c(-c2csc(Nc3ccc(C(=O)N4[C@@H]5CC[C@H]4COC5)c(F)n3)n2)s1 [Compound I-744] | 4.2 |
| Cc1nc(C)c(-c2csc(Nc3ccc(CN4[C@@H]5CC[C@H]4COC5)cn3)n2)s1 [Compound I-799] | 6.3 |
| Cc1nc(C)c(-c2csc(Nc3ccc(C(=O)N4CCOc5ccccc54)cn3)n2)s1 [Compound I-831] | 2.9 |
| Cc1nc(C)c(-c2csc(Nc3ccc(C(=O)N4[C@@H]5CC[C@H]4CSC5)cn3)n2)s1 [Compound I-843] | 2.6 |
